Results from publication PMC7956643, “Synthesis of Novel Pyrido[1,2-c]pyrimidine Derivatives with 6-Fluoro-3-(4-piperidynyl)-1,2-benzisoxazole Moiety as Potential SSRI and 5-HT1A Receptor Ligands” (International Journal of Molecular Sciences, 2021).

Legend:
human 5-HT1A receptor = target: T1, human 5-HT1A receptor (Homo sapiens, UniProt P08908); experiment: 5-HT1A radioligand binding assay; settings: [3H]-8-OH-DPAT 1 nM; membranes from CHO-K1 cells with human 5-HT1A receptor
T1 construct: purchased PerkinElmer; host or cells: CHO-K1 cells, stably transfected
T1 sequence (P08908 1-422): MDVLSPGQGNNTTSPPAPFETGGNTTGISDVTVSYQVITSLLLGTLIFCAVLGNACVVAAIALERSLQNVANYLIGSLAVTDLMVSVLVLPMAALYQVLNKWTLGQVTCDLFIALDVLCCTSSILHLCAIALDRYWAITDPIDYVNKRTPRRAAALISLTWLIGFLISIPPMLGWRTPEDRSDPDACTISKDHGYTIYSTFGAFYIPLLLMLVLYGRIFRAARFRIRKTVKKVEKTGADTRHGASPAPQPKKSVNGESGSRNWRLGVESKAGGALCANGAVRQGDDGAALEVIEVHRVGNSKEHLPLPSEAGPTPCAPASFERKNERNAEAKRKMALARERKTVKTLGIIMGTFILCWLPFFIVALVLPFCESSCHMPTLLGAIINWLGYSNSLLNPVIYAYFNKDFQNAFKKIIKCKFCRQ
Procedure: Radioligand binding was performed using membranes from CHO-K1 cells stably transfected with the human 5-HT1A receptor (PerkinElmer, Fremont, CA, USA). All assays were carried out in duplicate. Then, 50 µL working solution of the tested compounds, 50 µL [^3H]-8-OH-DPAT (final concentration 1 nM) and 150 µL diluted membranes (20 µg protein per well) prepared in assay buffer (50 mM Tris, pH 7.4, 10 mM MgSO4, 0.5 mM EDTA, 0.1% ascorbic acid) were transferred to a polypropylene 96-well microplate using 96-wells pipetting station Rainin Liquidator (MettlerToledo, Columbus, OH, USA). […] The reaction was terminated by rapid filtration through GF/B filter mate, presoaked with 0.5% polyethyleneimine for 30 min. Ten rapid washes with 200 µL 50 mM Tris buffer (4 °C, pH 7.4) were performed using an automated harvester system—Harvester-96 MACH III FM (Tomtec, Hamden, CT, USA). […] Data were fitted to a one-site curve-fitting equation with Prism 6 (GraphPad Software, San Diego, CA, USA) and Ki values were estimated from the Cheng–Prusoff equation.

SERT protein = target: T2, SERT protein (Rattus norvegicus, UniProt P31652); experiment: SERT radioligand binding assay; settings: [3H]-citalopram 1.0 nM; rat cortex tissue
T2 construct: from tissue; host or cells: rat cortex
Procedure: Radioligand binding was performed using rat cortex tissue. All assays were carried out in duplicate. First, 50 µL working solution of the tested compounds, 50 µL [^3H]-citalopram (final concentration 1.0 nM) and 150 µL tissue suspension, prepared in assay buffer (50 mM Tris. pH 7.7; 150 mM NaCl; 5 mM KCl), were transferred to a polypropylene 96-well microplate using 96-wells pipetting station Rainin Liquidator (MettlerToledo). […] The reaction was terminated by rapid filtration through GF/B filter mate presoaked with 0.3% polyethyleneimine for 30 min. Ten rapid washes with 200 µL 50 mM Tris buffer (4 °C, pH 7.7) were performed using an automated harvester system—Harvester-96 MACH III FM (Tomtec). […] Data were fitted to a one-site curve-fitting equation with Prism 6 (GraphPad Software) and Ki values were estimated from the Cheng–Prusoff equation.

5-HT6 receptors = target: T3, 5-HT6 receptors (Homo sapiens, UniProt P50406); experiment: 5-HT6 radioligand binding assay; settings: [3H]-LSD; HEK293 cells, human receptor
T3 construct: expressed in transfected cells
Procedure: (§1) In vitro radioligand binding assays for 5-HT2A, 5-HT6, 5-HT7 and D2 receptors were carried out using methods published by Zajdel et al.. For the assays, HEK293 cell cultures stably expressing the investigated human receptors were used. Cell pellets were thawed and homogenized in 20 vol of assay buffer using an Ultra Turrax tissue homogenizer, then centrifuged twice at 35000 g for 20 min at 4 °C, with incubation for 15 min at 37 °C in between. The composition of the assay buffers was as follows: for 5-HT2A receptors—50 mM Tris-HCl, 0.1 mM EDTA, 4 mM MgCl2 and 0.1% ascorbate; for 5-HT6 receptors—50 mM Tris-HCl, 0.5 mM EDTA, 4 mM MgCl2; for 5-HT7 receptors—50 mM Tris-HCl, 4 mM MgCl2, 10 µM pargyline and 0.1% ascorbate; for D2 receptors—50 mM Tris-HCl, 1 mM EDTA, 4 mM MgCl2, 120 mM NaCl, 5 mM KCl, 1.5 mM CaCl2 and 0.1% ascorbate. All assays were incubated in total volume of […] in 96-well microtitre plates for 1 h at 37 °C, except for 5-HT2A receptors which were incubated at room temperature for 1.5 h. The process of equilibration was terminated by rapid filtration through Unifilter plates with a 96-well cell harvester, and radioactivity retained on the filters was quantified on a Microbeta plate reader (PerkinElmer, USA). For displacement studies, the assay samples contained as radioligands (PerkinElmer): 2 nM [^3H]-ketanserin (spec. act. 53.4 Ci/mmol) for 5-HT2A receptors; 2 nM [^3H]-LSD (spec. act. 83.6 Ci/mmol) for 5-HT6 receptors; 0.6 nM [^3H]-5-CT (spec. act. 39.2 Ci/mmol) for 5-HT7 receptors and [^3H]-raclopride (spec. act. 76.0 Ci/mmol) for D2 receptors. […] Each compound was tested in triplicate at 7–8 concentrations (10^-11-10^-4 M). The inhibition constants (Ki) were calculated from the Cheng–Prusoff equation [46]. Results were expressed as means of at least two separate experiments.

D2 receptors = target: T4, D2 receptors (Homo sapiens, UniProt P14416); experiment: D2 radioligand binding assay; settings: [3H]-raclopride; HEK293 cells, human receptor
T4 construct: expressed in transfected cells
Procedure: as §1

T2 sequence (P31652 whole entry): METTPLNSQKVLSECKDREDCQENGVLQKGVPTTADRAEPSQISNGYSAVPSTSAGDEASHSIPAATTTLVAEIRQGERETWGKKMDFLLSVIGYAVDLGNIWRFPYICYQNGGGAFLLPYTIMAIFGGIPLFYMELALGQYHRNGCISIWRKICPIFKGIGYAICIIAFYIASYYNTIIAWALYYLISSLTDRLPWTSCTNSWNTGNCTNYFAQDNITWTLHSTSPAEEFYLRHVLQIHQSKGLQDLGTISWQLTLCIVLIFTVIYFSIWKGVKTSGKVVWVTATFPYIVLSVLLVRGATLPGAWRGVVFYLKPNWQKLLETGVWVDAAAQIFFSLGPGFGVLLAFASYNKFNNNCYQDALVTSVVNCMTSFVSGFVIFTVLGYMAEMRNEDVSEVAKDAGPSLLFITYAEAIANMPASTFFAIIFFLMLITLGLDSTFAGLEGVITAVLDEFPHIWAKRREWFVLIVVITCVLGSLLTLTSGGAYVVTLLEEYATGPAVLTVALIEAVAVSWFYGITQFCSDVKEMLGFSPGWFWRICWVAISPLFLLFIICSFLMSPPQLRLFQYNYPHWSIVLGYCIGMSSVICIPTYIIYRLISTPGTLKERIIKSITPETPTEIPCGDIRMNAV
T3 sequence (P50406 whole entry): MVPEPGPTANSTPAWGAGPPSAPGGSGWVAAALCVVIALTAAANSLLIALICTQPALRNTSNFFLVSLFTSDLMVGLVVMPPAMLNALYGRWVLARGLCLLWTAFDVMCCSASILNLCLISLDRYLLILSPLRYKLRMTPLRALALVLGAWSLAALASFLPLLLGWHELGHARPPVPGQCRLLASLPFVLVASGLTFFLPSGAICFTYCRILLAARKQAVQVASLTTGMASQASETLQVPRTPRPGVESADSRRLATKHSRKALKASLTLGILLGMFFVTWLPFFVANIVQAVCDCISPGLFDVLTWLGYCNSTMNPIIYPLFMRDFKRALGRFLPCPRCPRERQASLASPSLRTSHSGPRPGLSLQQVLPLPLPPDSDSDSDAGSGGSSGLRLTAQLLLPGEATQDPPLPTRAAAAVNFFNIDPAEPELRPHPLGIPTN
T4 sequence (P14416 whole entry): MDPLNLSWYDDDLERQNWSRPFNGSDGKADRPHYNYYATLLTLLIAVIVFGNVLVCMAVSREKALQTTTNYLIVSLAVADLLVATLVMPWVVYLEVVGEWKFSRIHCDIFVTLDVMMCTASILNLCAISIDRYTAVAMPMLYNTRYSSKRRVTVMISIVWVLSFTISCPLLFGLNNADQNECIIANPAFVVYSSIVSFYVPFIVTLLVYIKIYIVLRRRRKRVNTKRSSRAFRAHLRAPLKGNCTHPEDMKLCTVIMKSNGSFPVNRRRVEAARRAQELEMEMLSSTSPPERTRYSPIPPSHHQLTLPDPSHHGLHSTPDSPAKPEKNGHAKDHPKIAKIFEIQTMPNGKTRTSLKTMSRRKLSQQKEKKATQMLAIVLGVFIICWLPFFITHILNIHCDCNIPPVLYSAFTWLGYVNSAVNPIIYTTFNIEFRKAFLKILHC

Ki (human 5-HT1A receptor) [µM] | Ki (SERT protein) [µM] | Ki (5-HT6 receptors) [µM] | Ki (D2 receptors) [µM] | Structure (SMILES)
0.023 ± 0.001 | 0.032 ± 0.0036 | 0.376 ± 0.058 | 0.007 ± 0.002 | O=c1c(-c2ccccc2)c2ccccn2c(=O)n1CCCCN1CCC(c2noc3cc(F)ccc23)CC1 [Compound 6a, 4-Phenyl-2-{4-[4-(6-fluoro-1,2-benzoxazol-3-yl)-1-piperidyl]butyl}-pyrido[1,2-c]pyrimidine-1,3-dione]
0.011 ± 0.0014 | 0.373 ± 0.032 | 0.709 ± 0.135 | 0.009 ± 0.002 | O=c1c(-c2ccccc2Cl)c2ccccn2c(=O)n1CCCCN1CCC(c2noc3cc(F)ccc23)CC1 [Compound 6d, 4-(2-Chlorophenyl)-2-{4-[4-(6-fluoro-1,2-benzoxazol)-1-piperidyl]butyl}-pyrido[1,2-c]pyrimidine-1,3-dione]
